Laboratory results reported in publication PMC10135569, “Does Enhanced Structural Maturity of hiPSC-Cardiomyocytes Better for the Detection of Drug-Induced Cardiotoxicity?” (Biomolecules, 2023).
Blank lines part the entries; values can stand above or below the compound they belong to.

Columns and labels:
[1] = test system: hiPSC-CMs (iCell2 Cardiomyocytes) 2D monolayers; assay: Membrane potential (action potential) recordings with FluoVolt voltage-sensitive dye on the CellOPTIQ platform; format: cell-based, human; conditions: for activity at 0.3 µM / activity at 1 µM / activity at 3 µM / activity at 0.1 µM: Homo sapiens, Cardiomyocyte, 0.5 h, 30 min, delta over DMSO 0.1%
In short: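 iCell2 hiPSC-CM monolayers (50,000 cells/well on fibronectin or Matrix Plus, days 5–6) were loaded with FluoVolt (1:1000, 20 min, 37 °C) and imaged at 37 °C with 470 nm excitation and 510–560 nm emission sampled at 10 kHz. Spontaneous action potentials were recorded for 10 s at baseline and 30 min after drug, with one of four concentrations per well (n = 8).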

[2] = test system: hiPSC-CMs (iCell2 Cardiomyocytes) 2D monolayers; assay: Contractility measurements using video imaging (ContractilityTool / MUSCLEMOTION); format: cell-based, human; conditions: for activity at 0.3 µM / activity at 1 µM / activity at 3 µM / activity at 0.1 µM: Homo sapiens, Cardiomyocyte, 0.5 h, 30 min, delta over DMSO 0.1%
In short: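 Monolayers on fibronectin or Matrix Plus coating, tested on days 5–6 in serum-free medium. Four concentrations, one per well, n = 8, with vehicle control.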

[3] = listed in Supplementary Table S1; no reference given; cited from earlier work
[4] = FM monolayer, read-out: APD30 (%DD)
[5] = FM monolayer, read-out: APD90 (%DD)
[6] = FM monolayer, read-out: Trise (%DD)
[7] = MM monolayer, read-out: APD30 (%DD)
[8] = MM monolayer, read-out: APD90 (%DD)
[9] = MM monolayer, read-out: Trise (%DD)
[10] = both FM and MM monolayers, concentration not given
[11] = FM monolayer, read-out: CtAmp (%DD)
[12] = FM monolayer, read-out: CtD50 (%DD)
[13] = MM monolayer, read-out: CtAmp (%DD)
[14] = MM monolayer, read-out: CtD50 (%DD)
[15] = 0.01–1 uM, two 2D monolayer models
[16] = FM monolayer, read-out: CL (%DD)
[17] = MM monolayer, read-out: CL (%DD)

electrical activity of the monolayers at higher concentrations ([1]; higher concentrations, FM and MM): electrically quiescent
Structure (SMILES): C=C[C@H]1C[N@@]2CC[C@H]1C[C@@H]2[C@@H](O)c1ccnc2ccc(OC)cc12 [Quinidine]
activity at 0.3 µM [1, 4]: 105 ± 2.9%
activity at 0.3 µM [1, 5]: 115 ± 2.5%
activity at 0.3 µM [1, 6]: 103 ± 14%
activity at 1 µM [1, 4]: 104 ± 1.4%
activity at 1 µM [1, 5]: 122 ± 1.4%
activity at 1 µM [1, 6]: 135 ± 8.3%
activity at 0.3 µM [1, 7]: 104 ± 1.4%
activity at 0.3 µM [1, 8]: 108 ± 1.2%
activity at 0.3 µM [1, 9]: 111 ± 15.7%
activity at 1 µM [1, 7]: 100 ± 1.2%
activity at 1 µM [1, 8]: 115 ± 0.8%
activity at 1 µM [1, 9]: 123 ± 15%
activity at 3 µM [1, 7]: 103 ± 2.1%
activity at 3 µM [1, 8]: 121 ± 1.2%
activity at 3 µM [1, 9]: 188 ± 23.3%
effect on AP rise time (Trise) (in words) [1, 10]: increased
effect on APD90 (in words) [1, 10]: increased
effect on cycle length (in words) [1, 10]: increased
activity at 0.3 µM [2, 11]: 66 ± 15.3%
activity at 0.3 µM [2, 12]: 111 ± 6.3%
activity at 1 µM [2, 11]: 162 ± 50.3%
activity at 1 µM [2, 12]: 106 ± 1.8%
activity at 0.3 µM [2, 13]: 118 ± 21.6%
activity at 0.3 µM [2, 14]: 107 ± 2.7%
activity at 1 µM [2, 13]: 99 ± 13.1%
activity at 1 µM [2, 14]: 97 ± 2.5%
activity at 3 µM [2, 13]: 106 ± 11.4%
activity at 3 µM [2, 14]: 105 ± 1.5%
Free Cmax [3]: 920 nM

Structure (SMILES): C[C@@H]1CC(=O)NN=C1c1ccc(NN=C(C#N)C#N)cc1 [Levosimendan]
effects on electrical activity [1, 15]: no physiologically significant effects
activity at 0.1 µM [1, 4]: 102 ± 2.2%
activity at 0.1 µM [1, 5]: 96 ± 1.7%
activity at 0.1 µM [1, 16]: 95 ± 1.4%
activity at 0.1 µM [1, 6]: 97 ± 22.3%
activity at 0.3 µM [1, 4]: 101 ± 2.9%
activity at 0.3 µM [1, 5]: 94 ± 1.1%
activity at 0.3 µM [1, 16]: 93 ± 1.1%
activity at 0.3 µM [1, 6]: 80 ± 13.5%
activity at 1 µM [1, 4]: 94 ± 3%
activity at 1 µM [1, 5]: 93 ± 0.6%
activity at 1 µM [1, 16]: 93 ± 1.6%
activity at 1 µM [1, 6]: 65 ± 9.5%
activity at 3 µM [1, 4]: 99 ± 3.9%
activity at 3 µM [1, 5]: 94 ± 1%
activity at 3 µM [1, 16]: 97 ± 1.2%
activity at 3 µM [1, 6]: 101 ± 24.9%
activity at 0.1 µM [1, 7]: 97 ± 1.4%
activity at 0.1 µM [1, 8]: 96 ± 1.2%
activity at 0.1 µM [1, 17]: 99 ± 0.8%
activity at 0.1 µM [1, 9]: 107 ± 17.8%
activity at 0.3 µM [1, 7]: 100 ± 2.2%
activity at 0.3 µM [1, 8]: 100 ± 1%
activity at 0.3 µM [1, 17]: 97 ± 0.7%
activity at 0.3 µM [1, 9]: 121 ± 16.3%
activity at 1 µM [1, 7]: 95 ± 1.7%
activity at 1 µM [1, 8]: 98 ± 0.9%
activity at 1 µM [1, 17]: 97 ± 0.7%
activity at 1 µM [1, 9]: 96 ± 7.8%
activity at 3 µM [1, 7]: 93 ± 1.9%
activity at 3 µM [1, 8]: 98 ± 0.9%
activity at 3 µM [1, 17]: 98 ± 0.5%
activity at 3 µM [1, 9]: 114 ± 10.2%
effects on contractile activity [2, 15]: no physiologically significant effects
activity at 0.1 µM [2, 11]: 125 ± 20.8%
activity at 0.1 µM [2, 12]: 94 ± 3.2%
activity at 0.3 µM [2, 11]: 94 ± 9.6%
activity at 0.3 µM [2, 12]: 100 ± 2.4%
activity at 1 µM [2, 11]: 155 ± 32.5%
activity at 1 µM [2, 12]: 102 ± 2.7%
activity at 3 µM [2, 11]: 122 ± 26.6%
activity at 3 µM [2, 12]: 101 ± 1.8%
activity at 0.1 µM [2, 13]: 120 ± 12.4%
activity at 0.1 µM [2, 14]: 104 ± 2%
activity at 0.3 µM [2, 13]: 95 ± 8.1%
activity at 0.3 µM [2, 14]: 102 ± 1.3%
activity at 1 µM [2, 13]: 199 ± 27.2%
activity at 1 µM [2, 14]: 104 ± 2%
activity at 3 µM [2, 13]: 167 ± 33.5%
activity at 3 µM [2, 14]: 103 ± 2.3%
increasing the amplitude of contraction (positive inotropy) ([2]; both experimental groups): ineffective
contractile amplitude at higher concentrations (in words) ([2]; higher concentrations, FM and MM, not statistically significant): increased
change in amplitude of contraction at higher concentrations ([2]; higher concentrations, both groups, failed to reach significance): < 20%
Free Cmax [3]: 100 nM
